# Read-outs that look alike come from different tables or passages of the source.
# Key:
# BV-2 microglial cells = experiment: Western blot analysis of LPS-induced inflammation; format: cell-based
# Method: LPS (L2880, Sigma) was dissolved in normal saline before injection. BV2 cells were seeded in 6-well plates at a density of 10^5 cells/well and cultured for 1 day to allow full adhesion. […] Subsequently, LPS (1 µg/mL) was added to induce inflammation for 24 h. The medium was then removed and the BV2 cells were washed three times with PBS. The cells were then lysed in 100 µL of ice-cold radioimmunoprecipitation assay buffer, and protein concentrations were quantified using the Bio-Rad protein assay. Equal amounts of proteins were electrophoresed on a 10% sodium dodecyl sulfate-polyacrylamide gel. The separated proteins were transferred onto nitrocellulose membranes and incubated with primary monoclonal mouse antibodies (BIOTOOLS Co., Ltd., Taipei, Taiwan) against IL-6 (1:1000), IL-1β (1:1000), TNF-α (1:1000), and β-actin (1:5000) overnight at 4 °C. Following incubation with the appropriate secondary antibody, the signals were analyzed using an imaging system (Bio-Rad).
# [1] = system: rats with AlCl3-induced AD; experiment: Western blot of brain tissue for synapsin-1, synaptophysin, BACE1 and TNF-α; format: in vivo, SD rats; settings: compared with the AD group
# Method: (§1) The study used 60 male SD rats (BioLASCO, Taiwan; average age, 8 weeks). The study was approved by the Institutional Animal Care and Use Committee (No. 20,190,497) of National Taiwan University. CLB.HCl (Sigma-Aldrich C5423; Lot# BCBQ2163V) powder was stored at 4 °C and diluted in sterile 0.9% saline to a concentration of 20 µM based on the free base before injection. AlCl3 (7446-70-0, Sigma-Aldrich) was dissolved in normal saline before injection, and 70 mg/kg body weight of AlCl3 was administered intraperitoneally (i.p.) three times weekly for 8 weeks as previously described. […] After 8 weeks, several animal behavioral tests, histological staining, pharmacokinetics, and biochemical analyses were performed.
# [2] = Plasma pharmacokinetics of CLB by LC-MS/MS after intramuscular administration; format: in vivo, SD rats
# Method: as §1
# LC-MS/MS was used to perform quantitative analysis using an LCMS8030 system (Shimadzu, Japan). We used the multiple reaction monitoring mode for mass spectrometric analysis, and the MS/MS parameters were optimized by flow injection analysis. Plasma samples were prepared using simple protein precipitation in methanol. The specificity of the method was tested by analyzing blank rat plasma, blank rat plasma spiked with clenbuterol-d9 (internal standard, IS), and plasma samples collected after CLB administration. A Thermo Hypersil Gold aQ C18 column (50 mm × 2.1 mm) with a particle size of 1.9 μm was used for separation. The mobile phase gradient consisted of (A) 2% methanol in pure water + 0.1% formic acid, and (B) methanol with 0.1% formic acid. The gradient elution was as follows: 30% B (0 min), 30% B (0.5 min), 98% B (2.5 min), 98% B (3.5 min), 30% B (4 min), and 30% B (5.5 min) at a flow rate of 300 µL/min, with a total run time of […]. A calibration curve was constructed using the plasma concentration of the quality control (QC) sample and the peak area ratio (y) of the QC sample to the IS. The linear calibration curves of CLB ranged from 0.5 to 200 ng/mL, with correlation coefficients over 0.99952. The injection volume of the final solution was 20 µL for the serum specimens. To evaluate the accuracy, precision, and extraction recovery of the assay, three sequential assays were performed with six replicates of QC samples (5, 50, and 500 ng/mL CLB) for each assay. QC samples were prepared from normal blank rat plasma at concentrations of 0.5, 2, 5, 20, 50, 200, and 500 ng/mL of CLB. The concentrations of the QC samples were calculated based on the calibration curve and compared with those of the control samples with the same concentration. For the brain sample homogenization procedures, a brain sample and an equivalent weight of 25% plasma solution were mixed in a 50 mL centrifuge tube and homogenized completely at 30,000 rpm on ice. The resulting homogenized solution was centrifuged and the supernatant was collected as a test sample. The test sample was filtered through a 0.2 μm GHP filter, and 200 µL of the sample mixture was transferred into a new 96-well 1 mL round collection plate and sealed. Finally, the samples were placed in an autosampler to be injected.
# [3] = Drug content in brain tissues by LC/MS/MS; format: in vivo, SD rats; settings: male, SD, 6 mg/kg; rat brain homogenate, intramuscular injection; read-out: Concentration in brain tissues 24 h after injection
# Method: as §1
# LC-MS/MS was used to perform quantitative analysis using an LCMS8030 system (Shimadzu, Japan). We used the multiple reaction monitoring mode for mass spectrometric analysis, and the MS/MS parameters were optimized by flow injection analysis. Plasma samples were prepared using simple protein precipitation in methanol. The specificity of the method was tested by analyzing blank rat plasma, blank rat plasma spiked with clenbuterol-d9 (internal standard, IS), and plasma samples collected after CLB administration. […] The concentrations of the QC samples were calculated based on the calibration curve and compared with those of the control samples with the same concentration. […]
# N2a cell line = experiment: N2a cell viability versus concentration (IC50); format: cell-based; settings: Mus musculus; N2a cells; called predicted IC50; read-out: IC50 (concentration at which 50% cell survival was observed)
# L929 cell line = experiment: Biocompatibility by WST-1 assay (ISO 10993); format: cell-based
# Method: The extracted supernatants were collected for subsequent experiments. Zinc diethyldithiocarbamate was used as a positive control and aluminum oxide was used as a negative control. After adding the WST-1 solution to the wells, the plate was incubated for 2 h, and the absorbance of each well was measured at 450 nm using a spectrophotometric plate reader (ELISA reader, Tecan Sunrise, Switzerland). The percentage of viable cells was calculated using the following equation:
# Cell viability (%) = ((OD experiment - OD background) ×100)/ ((OD control - OD background))…(2).
# Aβ42 peptides = molecular target: T1, Aβ42 peptides (Homo sapiens, UniProt P05067); experiment: Thioflavin T fluorescence assay and TEM of Aβ aggregation; format: biochemical
# T1 construct: Aβ42 peptides were obtained from Peptide Institute, Inc; purchased Peptide Institute, Inc. (ASIA BIOSCIENCE Co., Ltd., Taiwan)
# Method: Aβ42 peptides were obtained from Peptide Institute, Inc. (ASIA BIOSCIENCE Co., Ltd., Taiwan) and dissolved in hexafluoro-2-propanol (HFIP; Oakwood Products, Estill, SC, USA) to a final concentration of 1 mM for monomerization. The resulting solution was stored at − 80 °C. The monomerized peptides were resuspended in anhydrous DMSO (catalog number D-2650, Sigma) and diluted to a concentration of 100 µM using Dulbecco’s modified Eagle’s medium (DMEM, Sigma) before use. Aβ fibrils were formed by shaking the solution at 37 °C for 3 days. The morphology of the fibrils, with or without CLB incubation for 3 days, was observed using transmission electron microscopy (TEM). Samples were incubated with 1% uranyl acetate for 1 min before TEM.
# The progression of amyloid β aggregation was tracked using thioflavin T (ThT), a fluorescent dye originally used to stain amyloid fibrils in histological samples. […] ThT fluorescence was measured at 25 °C using a spectrophotometric plate reader (ELISA reader, Tecan Sunrise, Switzerland) with an excitation filter at 450 nm and an emission filter at 482 nm, the computation of intensity was performed through the utilization of SoftMax Pro 7.0 software (Molecular Devices, CA, USA). After ThT binds to β-sheet aggregate structures, such as amyloid fibrils, its fluorescence emission changes, allowing the monitoring of amyloid β aggregation.
# [4] = system: rats with AlCl3-induced AD; experiment: Morris water maze test in rats with AlCl3-induced AD; format: in vivo, SD rats; settings: 6 mg/kg intramuscular weekly, 8 weeks
# Method: as §1
# This study used a circular pool partitioned into four quadrants, one of which contained an underwater platform. […] After four training sessions, the time taken by the rats to reach the escape platform was measured using EthoVision software (Noldus Information Technology, Wageningen, Netherlands). […] To evaluate spatial memory, the time taken by each rat to reach the platform from the starting position was recorded. On the contrary, working memory was assessed by determining the amount of time spent by the rat in the same quadrant (up to 120 s) but without a platform. The time spent in the quadrant without a platform was also recorded.
# [5] = male, SD, im, rat plasma, 6 mg/kg intramuscular
# T1 sequence (P05067 672-713 limits assumed): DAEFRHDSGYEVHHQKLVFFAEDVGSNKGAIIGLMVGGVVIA
molecule,measurement,setting,value
"CC(C)(C)NCC(O)c1cc(Cl)c(N)c(Cl)c1 (centres unmarked) [CLB, Clenbuterol]","protein expression levels of IL-1β, IL-6, and TNF-α","BV-2 microglial cells; LPS-induced BV-2 cells, western blot",prominently reduced
same,"secretion of IL-1β, IL-6, and TNF-α","BV-2 microglial cells; LPS-stimulated BV-2 cells, 20 µM, vs LPS-treated control cells",significant inhibitory effects
same,expression of synapsin-1 and synaptophysin in hippocampus,[1],significant increase
same,half-life,"[2]; SD, rat, plasma, intramuscular, 6 mg/kg, rats",~30 h
same,AUC(0-inf),[2]; [5],5200 ± 4000 ng·h/mL
same,Tmax,[2]; [5],4 h
same,AUC(0-t),"[2]; male, SD, im, rat plasma, 6 mg/kg intramuscular, 0.5-168 hr",4890 ± 3740 ng·h/mL
same,Cmax,"[2]; male, SD, rat, plasma, im, 6 mg/kg, rat plasma, 6 mg/kg intramuscular, read-out: Cmax",120 ± 12.8 ng/mL
same,Cmax,"[2]; rat plasma, 6 mg/kg intramuscular, 6 mg/kg",120.19 ng/mL
same,accumulation after multiple-dose administration,"[2]; rats, repeated intramuscular dosing",no apparent accumulation
same,concentration at 24 h,[3],5.24 ± 1.81 ng/mL
same,IC50,N2a cell line,20 µM
same,cell viability / cytotoxicity,"L929 cell line; L929 cells, day 3, WST-1, extract medium",no notable disparities in cell viability
same,effect on Aβ aggregates (ThT fluorescence),Aβ42 peptides; 10 µM Aβ incubated with 20 µM CLB,extensive fragmentation
same,effect on Aβ fibrils (TEM),Aβ42 peptides; Aβ and CLB co-incubated for 3 days,disassembled amyloid plaques
same,time to locate the escape platform (MWM),[4],did not exhibit a performance similar to that of the SHAP-CLB group
Hydroxyapatite [HAP],cell viability / cytotoxicity,L929 cell line,no notable disparities in cell viability
